In patent publication US11413328B2, “Methods for treating inflammatory conditions of the lungs” (priority 2016, dated 2022):
Bridges are numbered along the chain shown (N, C = ends). Where no end group is shown, it is not given here.

Assays:
[1] = system: murine, infection induced, severe, steroid-insensitive, neutrophilic, allergic airways disease model of asthma; assay: Airway hyper-responsiveness (Flexivent), Ovalbumin/C. muridarum steroid-insensitive asthma model; assay type: in vivo, BALB/c mice; settings: Ova sensitized, C. muridarum infected mice; hBD-2 IN 5 mg/kg day 30, 32, 34; DEX IN 2 mg/kg day 32-34; vs Saline control
Protocol: Female 6-8 weeks old BALB/c mice were intraperitoneally (IP) sensitized to ovalbumin 50 μg with the adjuvant alum 1 mg in 200 μL 0.9% saline. Mice were intranasally (IN) challenged with Ova on day 12-13 and day 33-34 (10 μg in 50 μL sterile saline).

[2] = system: murine house dust mite/Freunds complete adjuvant driven model of allergic asthma; assay: Lung histopathology (H&E/PAS), HDM asthma model (Example 3); assay type: in vivo, BALB/c mice; settings: vs HDM challenged vehicle
Protocol: Treatment regime: Female 7-10 weeks old BALB/c mice randomly allocated into 4 study groups one day prior to study start were subcutaneously (SC) sensitized to house dust mite (100 μg HDM in 200 μL saline plus Freund's complete adjuvant in 0.9% saline). Mice were intranasally (IN) challenged with HDM on day 14 (HDM 25 μg in 50 μL of saline). hBD-2 was administered IN or orally (0.4 mg/kg TID IN; 0.4 mg/kg TID orally, 50 μL phosphate buffered saline) on day 14. The initial dose was administered 60 minutes prior to challenge, and the subsequent doses approximately 6 hours apart. […] Lungs from other 8 animals per group were inflated in situ with 10% buffered formalin, removed from thorax, placed individually in 10% buffered formalin, paraffin embedded in toto, sectioned and H&E/PAS stained. The paraffin blocks were retained for the IHC analysis. Cellular influx (mononuclears, eosinophils, neutrophils) was assessed semi-quantitatively on H&E stained slides separately for peri-bronchial/bronchiolar and perivascular space as follows: [table] Overall score for inflammation was calculated as sum of all individual scores.

[3] = Pharmacokinetics after single oral gavage; assay type: in vivo, NMRI mice; settings: oral 4 mg/kg in mice
Protocol: Pharmacokinetic study to establish pharmacokinetic profile of hBD-2 following single oral gavage of 4 mg/kg administration to NMRI mice.
21 female NMRI mice were dosed by oral gavage 5 ml/kg using a gavage tube and a 1 ml syringe according to the individual body weight obtained on the day of dosing. Urine was strived sampled at random time points by gently massaging the inguinal area of the abdomen. The first blood sample was taken using a submandibular sampling method. The second blood sample was collected from Isoflurane anaesthetized mice. Intestinal samples were taken after euthanasia. The abdomen of each mouse was opened and three sections of the intestines were sampled.

[4] = system: murine house dust mite driven model of allergic asthma; assay: Lung resistance and compliance, prophylactic treatment in HDM asthma model (Example 9); assay type: in vivo, BALB/c mice
Protocol: (§1) Female 7-10 weeks old BALB/c mice were randomly allocated into 5 study groups one day prior to study start and subcutaneously (SC) sensitized to house dust mite (100 μg HDM in 200 μL saline plus Freund's complete adjuvant in 0.9% saline). The mice were treated with hBD-2 orally and intranasally respectively at a dose of 1.2 mg/kg/day (0.4 mg/kg TID) starting on day 12 in the morning and continued TID at approximately 6 hours intervals. The last dose was administered on day 14 one hour prior to challenge. The total number of doses were 8 doses or a total of […] hBD-2. Mice were then intranasally (IN) challenged with HDM on day 14 (HDM 25 μg in 50 μL of saline).
Lung function: Starting 48 hours after HDM challenge, measurements of lung resistance and lung compliance were carried out after methacholine challenge (3.125 MCH1; 6.25 MCH2; 12.5 MCH3 and 25 mg/mL MCH4) by anaesthetized, cannulated mice using DSI's Buxco Finepoint RC system. Data are represented as airway resistance at 10 mg/kg methacholine and as dose responsive curves.

[5] = system: murine house dust mite driven model of allergic asthma; assay: Cell counts in BALF, prophylactic treatment in HDM asthma model (Example 9); assay type: in vivo, BALB/c mice; settings: prophylactic oral 0.4 mg/kg TID day 12 to day 14
Protocol: as §1
Airway inflammation: At 48 hours post challenge, bronchoalveolar lavage was performed washing the lungs with 3 volumes of cold PBS (0.4; 0.3 and 0.3 mL, total 1 mL). Total and differential leucocyte cell counts were determined on an automated haematological analyser Sysmex XT-2000iV.

[6] = system: TNF-α, IL-4, IL-5, IL-6, IL-9, IL-13 and IL-33 in lung homogenate; assay: Cytokine ELISA in lung homogenate, prophylactic treatment in HDM asthma model (Example 9); assay type: in vivo, BALB/c mice
Protocol: as §1
Lung sampling for cytokine analysis: After completion of every BAL, lungs were removed from the thorax, snap frozen in liquid nitrogen and stored frozen at −80 degrees Celsius until analysis of cytokine concentration of TNF-α, IL-4, IL-5, IL-6, IL-9, IL-13 and IL-33 in lung homogenate by ELISA.

[7] = system: microbiota of the intestine; assay: 16S microbiota analysis, interventional defensin treatment in diet-induced obese mice (Example 11); assay type: in vivo; settings: intervention
Text: The experiment elucidates the effect of hBD2 and HD5 on the microbiota in diet-induced obese mice. A run-in period of 13 weeks where mice were fed a very HFD (60% energy from fat) preceded the intervention. Only mice meeting the criteria of a minimum of 12 gram weight gain (approximately 50% of initial bodyweight) during the run-in period were included in the final analyses. […] They were exposed to all experimental tests, but excluded from the analyses.
Before the intervention all mice were MR scanned. Cages of mice were allocated to experimental groups based on their fat mass. All subsequent measures were paired with data from the same mouse before the intervention. A LFD (low fat diet) reference group was running in parallel. As controls for the intervention 2 additional groups were included: 1 very HFD and 1 LFD. Experimental mice stayed on the very HFD during the intervention. The mice were on the experimental diet for 10 weeks. They were co-housed throughout the experiment, 4 mice per cage, 3 cages per group. All tests ran over 3 days, 1 cage per group per day.
Microbial analyses were carried out to study the microbiota of the intestine. Longitudinal 16S characterization was conducted on 4 paired samples from 60 mice, 240 samples in total. Each mouse was sampled prior to diet change, 1 week post diet change, 4 weeks post diet change and at termination, thus ensuring a thorough characterization of the faecal microbiota as a result of defensin treatment.

[8] = prophylactic intranasal 0.4 mg/kg TID day 12 to day 14
[9] = prophylactic oral 0.4 mg/kg TID day 12 to day 14
[10] = prophylactic intranasal, not statistically significantly different from the control

## GIGDPVTCLKSGAICHPVFCPRRYKQIGTCGLPGTKCCKKP (disulfide 8-37, 15-30, 20-38 (inferred)) [hBD-2, human beta defensin 2]
[1]
  AHR (airway hyper-responsiveness): completely normalized
[2]; intranasal 0.4 mg/kg TID day 14
  increase in histological inflammation of lung tissue: effectively inhibited
[2]; oral 0.4 mg/kg TID day 14
  increase in histological inflammation of lung tissue: effectively inhibited
[3]
  systemic availability after oral dosing: not systemically available
[4]; [8]
  decrease of pulmonary compliance: inhibiting
  increase of airway resistance: inhibiting
[4]; [9]
  decrease of pulmonary compliance: inhibiting
  increase of airway resistance: inhibiting
[5]
  neutrophil counts in BALF: significantly inhibited
[6]; [10]
  IL-4 in lung homogenate: trend towards lowering
  IL-5 in lung homogenate: trend towards lowering
  IL-6 in lung homogenate: trend towards lowering
  IL-9 in lung homogenate: trend towards lowering
  IL-13 in lung homogenate: trend towards lowering
  TNF-α in lung homogenate: trend towards lowering
[6]; prophylactic oral administration
  cytokine concentrations in lung tissue homogenates (TNF-α, IL-4, IL-5, IL-6, IL-9 and IL-13): complete normalization
[7]; HD5 p<0.02
  abundance of Alloprevotella in the colon: no influence
[7]; hBD2 p<0.0001
  relative abundance of Bifidobacteriaceae in the small intestine: dramatically and statistically significant increased
[7]; p<0.04
  relative abundance of Bifidobacteriaceae in the colon: dramatically and statistically significant increased
